Activity calls are given as the source filed them. No cut-off for these calls is given here.
What was measured:
OVCAR-8 [1] = experiment: Antiproliferative activity against human OVCAR8 cells after 72 hrs by SRB assay; type: functional, cell-based; settings: OVCAR-8, 72 h
A2780 [2] = experiment: Antiproliferative activity against human A2780 cells after 72 hrs by SRB assay; type: functional, cell-based; settings: A2780, 72 h
IGROV-1 [3] = experiment: Antiproliferative activity against human IGROV1 cells after 72 hrs by SRB assay; type: functional, cell-based; settings: IGROV-1, 72 h
[4] = Cytotoxicity against human ovarian epithelial cells assessed as reduction in cell viability after 72 hrs by SRB assay; type: cell-based
OVCAR-8 [5] = experiment: Induction of apoptosis in human OVCAR8 cells assessed as cell shrinkage at 10 to 20 uM incubated for 24 to 48 hrs by phase contrast light microscopy; type: functional, cell-based
OVCAR-8 [6] = experiment: Induction of apoptosis in human OVCAR8 cells assessed as cell detachment at 10 to 20 uM incubated for 24 to 48 hrs by phase contrast light microscopy; type: functional, cell-based
OVCAR-8 [7] = experiment: Induction of apoptosis in human OVCAR8 cells assessed as nucleus condensation at 10 to 20 uM incubated for 24 to 48 hrs by phase contrast light microscopy; type: functional, cell-based
A2780 [8] = experiment: Induction of apoptosis in human A2780 cells assessed as induction of caspase 3/7 activity at 20 uM incubated for 48 hrs by caspase-Glo 3/7 reagent based luminescence assay; type: functional, cell-based
OVCAR-8 [9] = experiment: Induction of apoptosis in human OVCAR8 cells assessed as induction of caspase 3/7 activity at 20 uM incubated for 48 hrs by caspase-Glo 3/7 reagent based luminescence assay; type: functional, cell-based
IGROV-1 [10] = experiment: Induction of apoptosis in human IGROV1 cells assessed as induction of caspase 3/7 activity at 20 uM incubated for 48 hrs by caspase-Glo 3/7 reagent based luminescence assay; type: functional, cell-based
OVCAR-8 [11] = experiment: Induction of apoptosis in human OVCAR8 cells assessed as induction of PARP-1 cleavage at 20 uM after 48 hrs by Western blot; type: functional, cell-based
OVCAR-8 [12] = experiment: Induction of apoptosis in human OVCAR8 cells assessed as early apoptotic cells at 20 uM after 48 hrs by Annexin V-FITC/propidium iodide based flow cytometry (reference value: 4%); type: functional
OVCAR-8 [13] = experiment: Induction of apoptosis in human OVCAR8 cells assessed as late apoptotic cells at 20 uM after 48 hrs by Annexin V-FITC/propidium iodide based flow cytometry (reference value: 5%); type: functional
OVCAR-8 [14] = experiment: Induction of apoptosis in human OVCAR8 cells assessed as viable cells at 20 uM after 48 hrs by Annexin V-FITC/propidium iodide based flow cytometry (reference value: 84%); type: functional; settings: OVCAR-8, 48 h, read-out: Activity
OVCAR-8 [15] = experiment: Cell cycle arrest in human OVCAR8 cells assessed as accumulation at subG1 phase at 20 uM after 48 hrs by propidium iodide based flow cytometry; type: functional
OVCAR-8 [16] = experiment: Cell cycle arrest in human OVCAR8 cells assessed as decrease in G0/G1 phase at 20 uM after 48 hrs by propidium iodide based flow cytometry; type: functional
[17] = Selectivity index, ratio of IC50 for human ovarian epithelial cells to IC50 for human OVCAR8 cells; type: toxicity; settings: human ovarian epithelial cells versus OVCAR8 cells, read-out: Ratio IC50
[18] = Selectivity index, ratio of IC50 for human ovarian epithelial cells to IC50 for human A2780 cells; type: toxicity; settings: human ovarian epithelial cells versus A2780 cells, read-out: Ratio IC50
[19] = Selectivity index, ratio of IC50 for human ovarian epithelial cells to IC50 for human IGROV1 cells; type: toxicity; settings: human ovarian epithelial cells versus IGROV1 cells, read-out: Ratio IC50
[20] = Drug uptake in human OVCAR8 cells at 20 uM after 48 hrs by Alexa 488 azide dye-based confocal fluorescence microscopy; type: ADME, cell-based; settings: ovcar-8, 48 h

IC50 (OVCAR-8 [1])	IC50 (A2780 [2])	SMILES	IC50 (IGROV-1 [3])	IC50 [4]	Activity (OVCAR-8 [5])	Activity (OVCAR-8 [6])	Activity (OVCAR-8 [7])	Activity (A2780 [8])	Activity (OVCAR-8 [9])	Activity (IGROV-1 [10])	Activity (OVCAR-8 [11])	Activity (OVCAR-8 [12])	Activity (OVCAR-8 [13])	viability at 20 µM (OVCAR-8 [14])	Activity (OVCAR-8 [15])	Activity (OVCAR-8 [16])	selectivity ratio [17]	selectivity ratio [18]	selectivity ratio [19]	Drug uptake [20]
5.2 µM	3.6 µM	COc1cc2c3c(c1OC)Oc1ccc(cc1)C[C@@H]1c4c(c(CN(C)C)c(OC)c(OC)c4Oc4ccc(cc4)C[C@H]3N(C)CC2)CCN1C	4.4 µM	10 µM	Active	Active	Active	Active	Active	Active	Active	13%	25%	51%	Active	Active	2	3	2	–
5.6 µM	6.3 µM	C#CCNCc1c2c3c(c(OC)c1OC)Oc1ccc(cc1)C[C@@H]1c4c(cc(OC)c(OC)c4Oc4ccc(cc4)C[C@H]3N(C)CC2)CCN1C	6.1 µM	32 µM	Active	Active	Active	Active	Active	Active	Active	11%	38%	50%	Active	Active	6	5	5	Active

SMILES	IC50 (OVCAR-8 [1])	IC50 (A2780 [2])	IC50 (IGROV-1 [3])	IC50 [4]	Activity (OVCAR-8 [5])	Activity (OVCAR-8 [6])	Activity (OVCAR-8 [7])	Activity (A2780 [8])	Activity (OVCAR-8 [9])	Activity (IGROV-1 [10])	Activity (OVCAR-8 [11])	Activity (OVCAR-8 [12])	Activity (OVCAR-8 [13])	viability at 20 µM (OVCAR-8 [14])	Activity (OVCAR-8 [15])	Activity (OVCAR-8 [16])	selectivity ratio [17]	selectivity ratio [18]	selectivity ratio [19]	Drug uptake [20]
COc1cc2c3c(c1OC)Oc1ccc(cc1)C[C@@H]1c4c(cc(OC)c(OC)c4Oc4ccc(cc4)C[C@H]3N(C)CC2)CCN1C	10 µM	7.6 µM	14 µM	35 µM	–	–	–	–	–	–	–	–	–	–	–	–	3	5	3	Not Active

Reference: ChEMBL document CHEMBL4219178, “Synthesis of (aminoalkyl)cycleanine analogues: cytotoxicity, cellular uptake, and apoptosis induction in ovarian cancer cells” (Bioorg Med Chem Lett, 2018)
